From US20080279961A1, “TELOMERE TARGETING AGENTS AS STEM CELLS DIRECTED TREATMENTS” (priority 2007, published 2008)
“Also recorded” adds a separate entry of the source.

How the values were obtained:
[1] = test system: HEK293T human embryonic kidney cells; experiment: HTCA colony assay on normal embryonic kidney cells; format: cell-based
Experimental: (§1) In human tumor stem cell assay (HTCA)/clonogenic assay, single cell suspensions from in vivo studies above were washed in medium and passed through sieves and the resulting single cell suspensions seeded into soft agar (n=3 tumors per group) as described by us before (Fiebig et al., 2004). Single cell suspensions of cell lines were prepared by trypsinization from cells growing as monolayers on plastic. Briefly, 5,000 (HEK293T cells), 10,000 (PC3, MCF-7 and UXF1138L cells) or 50,000 (UXF1138L tumor tissue) vital cells were added to 0.2 ml Iscove's medium/20% fetal bovine serum/0.05% gentamycin containing 0.4% agar and plated on top of a base layer consisting of 0.2 ml medium with 0.75% agar. The next day, the agar layers were fed with Isocve's medium and cultures incubated at 37° C., 7% CO2 for approximately 11 days. Vital colonies were stained with 2-(4-iodophenyl)-3-(4-nitrophenyl)-5-phenyltetrazolium chloride (1 mg/ml) 24 hrs before evaluation, and colonies >70 μm were counted with an automated image analysis system (Omincon FAS IV, BIOSYS GmbH, Karben, Germany). Drug effect was assessed as growth inhibitory concentrations 50 and 70% (IC50, IC70). Methylcellulose was used to grow cord blood stem cells instead of soft agar. The seeding density was 20,000 cells/well. Stem cell growth factor supplemented and optimized methylcellulose (Methocult H4434) was purchased from Stem Cell Technologies (Vancouver, CA). Methylcellulose lacking growth factors was used as negative growth control. Statistical significance between treatment groups was evaluated by using the Student T-test.
To assess RHPS4 effects on normal stem cells, the human embryonic kidney cell line HEK293T was exposed to drug in the MTT and HTCA assays, and tested RHPS4 effects on colony forming units of the mononuclear cell fraction of human cord blood in methyl cellulose (FIG. 2C). The cord blood colony assay was performed with and without colony stimulating growth factors, only methylcellulose containing growth factors grew colonies. […] Additionally, in normal cell types as compared to tumor cells, low and pharmacodynamically relevant concentrations of RHPS4 (0.01 to 1 microM) did induce colony formation (FIG. 2C). To assure that the induction of colony growth by RHPS4 in normal stem cells is reproducible, cord blood from three different individuals and HEK293T cells from different passages were used. Data shown in FIG. 2C represent the mean and standard deviation from three independent experiments. […] However, the plating efficiency (actual number of colonies growing per total number of cells seeded) varied among the experiments and therefore the results are shown as % of control growth. E.g. HEK293T control colony growth ranged from a mean number of 54 to 463 colonies per well, but the least percentage (cut-off level) of growth induction by RHPS4 observed in either, the individual HEK293T or the cord blood experiments, was 150%. […] Instead, at RHPS4 levels that induced colony growth 2.4-fold (1 mircoM), bulk cell growth was inhibited to 60% of control (FIG. 2C).

PC3 cells = experiment: human tumor stem cell assay (HTCA)/clonogenic assay; format: cell-based; conditions: PC3 colonies; read-out: IC50 colony growth in the HTCA
Experimental: as §1
(§2) The growth inhibitory activity of RHPS4 in human bulk tumor cells have been compared, by MTT assay, against RHPS4 activity in tumor cells grown as colonies in the clonogenic assay, also termed the human tumor stem cell assay (HTCA) (FIG. 2A-B). HEK293T human embryonic kidney cells grown in the HTCA, and cord blood cells cultured in methylcellulose were also treated with RHPS4 (FIG. 2C). The MTT assay is a 5 day proliferation test measuring effects on a morphologically heterogeneous, differentiated cell population (bulk cells), whereas the HTCA and methylcellulose assays are longer term (10-15 day) tests in which only a very small fraction of a bulk culture (˜0.1-1%) will grow as colonies. Cells growing anchorage-independently as colonies in a semi-solid matrix are considered to be pluripotent stem cells (Hamburger & Salmon, 1977; Locke et al., 2005; Fiebig et al. 2004). […] Similar observations were made with the breast cancer cell line MCF-7 (shown in FIG. 2B, HTCA IC50=0.04 microM; bulk cell IC50=2 microM).

UXF1138L cells = experiment: as above; format: cell-based; conditions: UXF1138L colonies; read-out: IC50 colony growth in the HTCA
Experimental: as §1, §2

MCF-7 cells = experiment: as above; format: cell-based
Experimental: as §1, §2

MCF-7 = experiment: cytokine secretion into clonogenic assay supernatant (ELISA); format: cell-based, human; conditions: MCF-7 tumor stem cell assay supernatant
Experimental: (§3) For the monkey bone marrow and the human cord blood, methylcellulose from StemCell Technologies (Vancouver) was used to grow the stem cells as colonies. […] Cancer tissues are composed of various cell types, tumor cells, stromal fibroblasts, blood vessels, inflammatory cells, and adipocytes, all of which can carry over into single cell suspensions that are seeded into soft agar after tissue digestion. To examine whether tumor stem cells secrete cytokines that support their growth of enforce differentiation, the expression of 6 cytokines found in the supernatant of clonogenic assays was evaluated. Ultrasensitive immunoassay procedures based on the ELISA (enzyme linked immuno absorbent assay) technology were employed for the measurement of VEGF, TNF-alpha, GMCSF, GCSF IL4 and IL6. The assays were performed by the Cytokine Laboratory in the VA Hospital at the University of Maryland Baltimore and data provided as optical density readouts that were converted relative to a standard into pg/ml absolute cytokine values. The IL4 and 6 measurements were all negative; however VEGF, TNF-alpha, GMCSF and GCSF yielded interesting and differential results between tumor and normal stem cells. While cytokine levels decreased after RHPS4 treatment in tumor stem cell assays, they increased in normal stem cell cultures.

HEK293T = experiment: as above; format: cell-based, human; conditions: HEK293T normal stem cell culture supernatant
Experimental: as §3

Question: How did the “concentrations that markedly inhibited tumor colony forming units and induced cord blood and HEK293T colony growth” value [1] turn out when COS(=O)(=O)[O-].Cc1cc2c3c([n+](C)c4ccc(F)cc4c3c1)-c1cc(F)ccc1N2C [RHPS4, 3,11-difluoro-6,8,13-trimethyl-8H-quino[4,3,2-kl]acridinium methosulfate] was run?
Answer: 0.1-1 mircoM

Question: What about the “sensitivity of cord blood and HEK293T colony forming units versus tumor cell colonies” value [1] of the same compound?
Answer: over a log-fold less sensitive

Question: What about the “stimulation of growth, number of colonies compared to vehicle” value ([1]; 0.1 and 1 mircoM RHPS4, HEK293T) of the same compound?
Answer: doubling to tripling the number of colonies

Question: What about the “induction of colony growth” value ([1]; 1 mircoM RHPS4, HEK293T) of the same compound?
Answer: 2.4 fold

Question: And the “drug concentration at which cell kill of normal stem cells was seen” value ([1]; HEK293T colony forming units)?
Answer: ~10 mircoM

Question: What about the “concentrations inhibiting normal colony formation above those inhibiting tumor cell colony formation” value ([1]; human embryonic kidney and cord blood vs tumor cells) of the same compound?
Answer: over 25 fold

Question: What about the “RHPS4 concentrations that inhibited colony formation” value ([1]; human embryonic kidney cells) of the same compound?
Answer: > 1 mircoM

Question: What about the “least percentage (cut-off level) of growth induction” value ([1]; individual HEK293T experiments, % of control growth) of the same compound?
Answer: ≥ 150%

Question: What about the IC50 (PC3 cells) of the same compound?
Answer: 30 nM

Question: And the IC50 (UXF1138L cells)?
Answer: 20 nM

Question: What about the “activity in colonies (HTCA) versus whole cell populations” value (MCF-7 cells; MCF-7) of the same compound?
Answer: two log-fold

Question: What about the IC50 (MCF-7 cells; MCF-7 colonies, read-out: IC50 colony growth in the HTCA) of the same compound?
Answer: 40 nM

Question: What about the “secretion of stem cell associated cytokines” value (MCF-7) of the same compound?
Answer: decreased; also recorded: inhibition of tumor necrosis factor alpha, VEGF, GMCSF and GCSF

Question: And the “secretion of stem cell associated cytokines” value (HEK293T)?
Answer: increased; also recorded: induction in cytokine secretion, particularly VEGF
